Test results reported in the supplement of paper PMC8967900.

Assays:
Test in all cases: selective drug sensitivity score (sDSS, relative to normal bone marrow) (sDSS (score)); higher = more potent and effective on the cell line relative to normal bone marrow cells
Details in all cases: 72 h
[1] = tested on: 380
[2] = tested on: CCRF-CEM
[3] = tested on: COG-LL-355h
[4] = tested on: DND-41
[5] = tested on: HAL-01
[6] = tested on: JURKAT
[7] = tested on: KARPAS-45
[8] = tested on: KASUMI-9
[9] = tested on: KOPN-8
[10] = tested on: MHH-CALL-3
[11] = tested on: MN-60
[12] = tested on: MOLT-16
[13] = tested on: NALM-16
[14] = tested on: P30-OHKUBO
[15] = tested on: PEER
[16] = tested on: RCH-ACV
[17] = tested on: REH
[18] = tested on: RPMI-8402
[19] = tested on: SEM cells
[20] = tested on: TMD5
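Further: ALL cell lines in 384-well plates, five doses spanning 10,000-fold, each plate scaled between vehicle and 100 µmol/L benzalkonium chloride controls, sDSS an adapted area-under-curve metric.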

Structure (SMILES)	selective drug sensitivity score [1]	selective drug sensitivity score [2]	selective drug sensitivity score [3]	selective drug sensitivity score [4]	selective drug sensitivity score [5]	selective drug sensitivity score [6]	selective drug sensitivity score [7]	selective drug sensitivity score [8]	selective drug sensitivity score [9]	selective drug sensitivity score [10]	selective drug sensitivity score [11]	selective drug sensitivity score [12]	selective drug sensitivity score [13]	selective drug sensitivity score [14]	selective drug sensitivity score [15]	selective drug sensitivity score [16]	selective drug sensitivity score [17]	selective drug sensitivity score [18]	selective drug sensitivity score [19]	selective drug sensitivity score [20]
COc1cc(OC)c(/C=C/S(=O)(=O)Cc2ccc(OC)c(NCC(=O)O)c2)c(OC)c1 [Rigosertib] (top concentration 10000 nM)	14.3	14.4	4.16	9.06	14.5	14.4	15.2	18.3	18.4	13.4	8.96	18.8	12.8	16.9	15.9	17.3	14	13.3	17.3	8.16
COc1ccc(CCc2nc3cc(-c4c(C)noc4C)ccc3n2C[C@H](C)N2CCOCC2)cc1Cl [SGC-CBP30] (top concentration 25000 nM)	0.38	4.28	9.88	2.88	3.98	2.18	4.98	5.58	6.18	9.48	2.78	6.58	0.48	1.88	4.08	7.88	-0.02	5.08	6.48	-2.62
CCS(=O)(=O)c1cccc(-c2cc(C(=O)NC3CCN(C)CC3)c(C)c3[nH]c4ncc(C)cc4c23)c1 [TAK-901] (top concentration 1000 nM)	10.4	11.2	6.16	0.66	-2.74	1.86	8.86	10.8	10.8	6.66	-2.64	12.6	0.16	12.8	12.4	10.7	11.1	6.56	9.36	7.16
Nc1nc(NC2CC2)cc(-c2cccc(Cl)c2Cl)n1 [TH588] (top concentration 25000 nM)	-0.58	7.52	2.42	5.82	-0.58	15.2	8.12	7.92	7.22	-0.58	-0.58	16.3	5.32	4.02	12	3.52	5.82	5.72	8.62	-0.28
CC(=O)Nc1ccc(C(=O)Nc2ccccc2N)cc1 [Tacedinaline] (top concentration 1000 nM)	12.2	2.08	-0.02	-0.02	9.18	0.68	2.08	4.38	15.5	1.58	-0.02	-0.02	-0.02	2.58	0.68	0.48	-0.02	1.58	4.08	10.6
Cn1ncnc1[C@H]1c2n[nH]c(=O)c3cc(F)cc(c23)N[C@@H]1c1ccc(F)cc1 [Talazoparib] (top concentration 1000 nM)	21.4	5.98	8.28	3.48	6.58	-0.22	-2.12	8.98	27.5	20.3	-4.92	19.1	-2.82	9.68	-3.72	10.7	-3.72	0.58	0.78	-1.52
COc1cccc2c1c(O)c(C(=O)N(C)c1ccc(C(F)(F)F)cc1)c(=O)n2C [Tasquinimod] (top concentration 10000 nM)	-0.42	-0.42	-0.42	1.08	-0.42	-0.42	-0.22	-0.42	-0.42	-0.42	-0.22	-0.42	-0.42	-0.42	-0.32	-0.42	-0.42	-0.42	-0.42	-0.42
Nc1nc2[nH]cnc2c(=S)[nH]1 [Thioguanine] (top concentration 10000 nM)	6.04	15.3	4.04	13.1	9.44	12.4	15	11.2	13.2	-1.36	10	15.2	7.74	11.6	13.1	14.3	10.8	14.9	13	-3.46
CC#CC(=O)N1CC[C@@H](n2c(=O)n(-c3ccc(Oc4ccccc4)cc3)c3c(N)ncnc32)C1 [Tirabrutinib] (top concentration 1000 nM)	1.2	0	0	2.3	6.5	0	2.5	0	4.1	1.7	0	0.9	0	0	0	11	0	0	1.1	1
CC(C)C[C@@H](C(=O)N[C@H](C(=O)OC1CCCC1)c1ccccc1)[C@H](O)C(=O)NO [Tosedostat] (top concentration 10000 nM)	5.76	4.36	11.4	5.16	-3.84	2.16	8.66	2.56	10.8	15.3	-2.44	10.4	3.06	4.96	0.06	2.16	-0.64	2.86	0.86	0.46
CS(=O)(=O)c1ccc(-c2cnc(N)c(C(=O)Nc3ccccc3)n2)cc1 [VE-821] (top concentration 10000 nM)	2.54	-0.66	5.64	-0.66	4.54	1.64	1.54	0.84	8.74	-0.06	-0.66	7.94	-0.66	-0.16	0.54	7.94	7.14	5.54	2.44	-0.66
CNC(=O)c1ccccc1Nc1cc(Nc2ccc(N3CCOCC3)cc2OC)ncc1C(F)(F)F [VS-4718] (top concentration 10000 nM)	-5	2	1.3	-0.9	8.7	1.1	7.1	2.1	-3.1	-5	-3.4	6.1	0	0.4	3.6	0.8	-1.1	8.8	7.9	6.8
Cc1cccc(-c2[nH]c(CNc3ccccc3F)nc2-c2ccc3ncnn3c2)n1 [Vactosertib (TEW-7197)] (top concentration 2500 nM)	0.8	-0.5	1.2	3	0	0	-0.5	1.4	-0.5	-0.5	-0.1	10.7	-0.4	-0.4	-0.5	-0.5	-0.5	-0.5	4.5	-0.5
O=C(/C=C\n1cnc(-c2cc(C(F)(F)F)cc(C(F)(F)F)c2)n1)NNc1ccccn1 [Verdinexor] (top concentration 1000 nM)	12	5.24	8.54	11.6	3.94	8.74	7.54	3.74	8.34	20.5	2.24	11.1	-0.36	4.34	5.44	9.04	4.44	8.34	0.34	0.14
CC[C@@H]1C(=O)N(C)c2cnc(Nc3ccc(C(=O)N[C@H]4CC[C@H](N5CCN(CC6CC6)CC5)CC4)cc3OC)nc2N1C(C)C [Volasertib] (top concentration 1000 nM)	15	13.8	6.4	11.2	5.8	11.7	19	18.5	12.4	2.9	0.4	12.7	11.3	13.1	18.7	13.9	12.8	20.8	21.4	10.1
O=C(CCCCCCC(=O)Nc1ccccc1)NO [Vorinostat] (top concentration 10000 nM)	8.8	5.9	7.7	2.2	0.8	3.6	9.9	11.6	13.4	14.1	0.8	15.5	1.5	10	9.7	16.5	4.5	8.2	11.3	-0.1
